Reference: US8715920B2, “Composition for preserving platelets during photosensitization” (Biovec Transfusion, LLC, priority 2010, dated 2014)
“Also recorded” adds a separate entry of the source. Positions of bridges follow the written chain, without caps; N, C: chain ends. Non-standard residues stand in square brackets, D forms with d. Residues, ends and D or L forms follow the SMILES beside them. hArg = N=C(N)NCCCC[C@H](N)C(=O)O; Mpa = O=C(O)CCS

Tests used:
[1] = Photodegradation upon exposure to ultraviolet light by HPLC analysis; conditions: for relative stabilities: assuming the dosage codes were equivalent
[2] = more sensitive to the αPTT; cited from earlier work

Row | Structure (SMILES) | relative stabilities ([1]; UV282) | photodegradation profile, in words ([1]; UV 282 nm) | HPLC peak relative to unexposed control ([1]; UV 282 nm, exposure A) | HPLC peak relative to unexposed control ([1]; UV 282 nm, remainder of the exposures (after exposure A)) | relative stabilities ([1]; UV308) | photodegradation, in words ([1]; UV 308 nm) | effect on PT and αPTT [2] | HPLC peak relative to unexposed control ([1]; UV 282 nm, exposure B) | HPLC peak relative to unexposed control ([1]; UV 282 nm, exposure C) | HPLC peak relative to unexposed control ([1]; UV 282 nm, exposure D) | HPLC peak relative to unexposed control ([1]; UV 282 nm, exposure F) | HPLC peak relative to unexposed control ([1]; UV 308 nm, exposure A) | HPLC peak relative to unexposed control ([1]; UV 308 nm, exposure B) | HPLC peak relative to unexposed control ([1]; UV 308 nm, exposure C)
1 | N=C(N)NCCCC[C@@H]1NC(=O)CCSSC[C@@H](C(N)=O)NC(=O)[C@@H]2CCCN2C(=O)[C@H](Cc2c[nH]c3ccccc23)NC(=O)[C@H](CC(=O)O)NC(=O)CNC1=O [Eptifibatide] ([Mpa][hArg]GDWPC-NH2; disulfide 1-7) | Argatroban>Tirofiban>>Eptifibatide | faster photodegradation profile than the other compounds tested | 47.0% | below the LLOD | Tirofiban>>Argatroban>>Eptifibatide | substantial photodegradation, but to a lesser extent than at UV282 |  |  |  |  |  |  |  | 
2 | COc1ccc2ccc(S(=O)(=O)N(C)[C@H]3CCN(Cc4csc(C(=N)N)c4)C3=O)cc2c1 [RPR-120844] |  |  |  |  |  |  | prolongs the PT and αPTT in a concentration-dependent manner |  |  |  |  |  |  | 
3 | CCCCS(=O)(=O)N[C@@H](Cc1ccc(OCCCCC2CCNCC2)cc1)C(=O)O [Tirofiban] |  |  | 81.2% |  |  |  |  | 59.9% | 37.7% | 15.4% | below the LLOQ; also recorded: indeterminate | 81.2% | 76.9% | 73.0%
